Experimental data taken from publication PMC8920630 (Evidence-based Complementary and Alternative Medicine : eCAM, 2022).
Like-named read-outs stand apart in the source and are kept apart here.

How the values were obtained:
[1] = system: primary porcine brain endothelial cells (PBECs); settings: cited from earlier work
[2] = PAMPA-BBB, prediction of CNS permeability; settings: for Prediction of CNS penetration: class from experimental Pe, limits of Di et al., 2003
in vitro = settings: PAMPA
[3] = design: method as in PMID 27992940; settings: cited from earlier work

## C[C@H]1[C@H](C)CC[C@]2(C(=O)O)CC[C@]3(C)C(=CC[C@@H]4[C@@]5(C)C[C@@H](O)[C@H](O)[C@@](C)(CO)[C@@H]5CC[C@]43C)[C@H]12 [Asiatic acid]
[1]
  BBB permeability in in vitro BBB model: highly BBB permeable
[2]
  Prediction of CNS penetration: CNS− (CNS−, low BBB permeation predicted; Pe, 10–6 cm s^−1 < 2.0)
In vitro
  Papp at 18 h: 0.3 ± 0.3 ×10⁻⁶ cm/s

## CCn1cc(C(=O)O)c(=O)c2cc(F)c(N3CCNCC3)nc21 [Enoxacin]
[2]
  Prediction of CNS penetration: CNS− (CNS−, low BBB permeation predicted; Pe, 10–6 cm s^−1 < 2.0)

## C[C@H]1[C@H](C)CC[C@]2(C(=O)O)CC[C@]3(C)C(=CC[C@@H]4[C@@]5(C)C[C@@H](O)[C@H](O)[C@@](C)(CO)[C@@H]5[C@H](O)C[C@]43C)[C@H]12 [Madecassic acid]
[2]
  Prediction of CNS penetration: CNS− (CNS−, low BBB permeation predicted; Pe, 10–6 cm s^−1 < 2.0)
In vitro
  Papp: 0.27 ± 0.3 ×10⁻⁶ cm/s

## Madecassoside
[1]; primary porcine brain endothelial cells (PBECs)
  BBB permeability in in vitro BBB model: highly BBB permeable
[2]; PBS: DMSO (95 : 5), 18 h, mean ± SEM
  PAMPA-BBB (Pe) Experimental permeability: 0.26 ± 0.7 10^−6 cm s^−1
[2]
  Prediction of CNS penetration: CNS− (CNS−, low BBB permeation predicted; Pe, 10–6 cm s^−1 < 2.0)
[3]
  Apparent oral bioavailability: less than 1%
